This experiment has as its system M. tuberculosis wild type plus biotin, growth inhibition. Nature of the experiment: growth inhibition of wild-type M. tuberculosis, plus biotin, BioA project, dry powder (AID 743349).

This passage reports IC90 results from PubChem BioAssay AID743349 (Broad Institute, 2014).

Calls of active or inactive are those of the source. The rule behind the calls is not given here.

Take `CCCCCCCC(=O)N1CC[C@@H]2[C@@H](CO)N(C)c3ccc(-c4cccc(F)c4)cc3[C@@H]21`: the IC90 is > 50 µM (inactive).
Consider `COc1cccc(NC(=O)N2CC[C@@H]3[C@@H](CO)N(C)c4ccc(-c5cccc(F)c5)cc4[C@@H]32)c1`, for which the IC90 was > 50 µM (inactive).
Under `CN1c2ccc(-c3ccc(F)cc3)cc2[C@H]2[C@H](CCN2C(=O)Cc2cccnc2)[C@H]1CO` stands > 50 µM (inactive); under `COc1ccc(NC(=O)N2CC[C@@H]3[C@@H](CO)N(C)c4ccc(-c5ccc(F)cc5)cc4[C@@H]32)cc1`, > 50 µM (inactive); under `CNS(=O)(=O)c1ccc(N2CCN(C(=O)c3ccc4c(c3)OCO4)CC2)cc1`, > 50 µM (inactive).
As to `CC(C)NC(=O)N1CC[C@@H]2[C@@H](CO)N(C)c3ccc(-c4ccc(F)cc4)cc3[C@@H]21`, the IC90 is > 50 µM (inactive).
Regarding `CN1c2ccc(-c3ccc(F)cc3)cc2[C@H]2[C@H](CCN2C(=O)Nc2ccc(F)cc2)[C@H]1CO`, the IC90 is > 50 µM (inactive).
As to `COc1ccccc1C(=O)N1CCN(c2ccc(C(C)=O)cc2)CC1`, the IC90 was > 50 µM (inactive).
As for `COc1ccccc1NC(=O)N1CC[C@@H]2[C@@H](CO)N(C)c3ccc(-c4ccc(F)cc4)cc3[C@@H]21`, the IC90 is > 50 µM (inactive).
Under `CN1c2ccc(-c3cccc(F)c3)cc2[C@@H]2[C@@H](CCN2C(=O)c2ccc3c(c2)OCO3)[C@H]1CO` stands > 50 µM (inactive).
Under `CNC(=O)c1ccc(N2CCN(C(=O)c3ccc4c(c3)OCO4)CC2)cc1` stands > 50 µM (inactive).
Regarding `COC(=O)CCCCCCC(=O)N1CC[C@@H]2[C@@H](CO)N(C)c3ccc(-c4cccc(F)c4)cc3[C@@H]21`, the IC90 was > 50 µM (inactive).
Under `COc1ccccc1NC(=O)N1CC[C@@H]2[C@@H](CO)N(C)c3ccc(-c4cccc(F)c4)cc3[C@@H]21` stands > 50 µM (inactive); under `CC(=O)c1ccc(N2CCN(C(=O)c3ccccc3F)CC2)cc1`, > 50 µM (inactive); under `CC(=O)c1ccc(N2CCN(C(=O)c3ccc4c(c3)OCO4)[C@H](C)C2)cc1`, > 50 µM (inactive).
Under `CC(=O)c1ccc(N2CC3(CN(C(=O)c4ccc5c(c4)OCO5)C3)C2)cc1` stands > 50 µM (inactive).
In the case of `COc1ccc(NC(=O)N2CC[C@@H]3[C@@H](CO)N(C)c4ccc(-c5cccc(F)c5)cc4[C@@H]32)cc1`, the IC90 was > 50 µM (inactive).
Regarding `COCC(=O)N1CC[C@@H]2[C@@H](CO)N(C)c3ccc(-c4cccc(F)c4)cc3[C@@H]21`, the IC90 is > 50 µM (inactive).
Under `CC(=O)c1ccc(NCCNC(=O)c2ccc3c(c2)OCO3)cc1` stands > 50 µM (inactive); under `CN1c2ccc(-c3cccc(F)c3)cc2[C@H]2[C@H](CCN2C(=O)CCCCCCN)[C@H]1CO`, > 50 µM (inactive).
In the case of `CC(=O)c1ccc(N2CCN(C(=O)c3ccccc3Cl)CC2)cc1`, the IC90 was > 50 µM (inactive).
Under `CC(C)NC(=O)N1CC[C@@H]2[C@@H](CO)N(C)c3ccc(-c4cccc(F)c4)cc3[C@@H]21` stands > 50 µM (inactive); under `CC(=O)c1ccc(N2CCN(C(=O)c3ccc4c(c3)OCO4)CC2)cc1`, > 50 µM (inactive); under `CN1c2ccc(-c3cccc(F)c3)cc2[C@H]2[C@H](CCN2C(=O)Cc2cccnc2)[C@H]1CO`, > 50 µM (inactive).
Under `CN1c2ccc(-c3cccc(F)c3)cc2[C@H]2[C@H](CCN2C(=O)Cc2ccccc2)[C@H]1CO` stands > 50 µM (inactive); under `CN(C)C(=O)c1ccc(N2CCN(C(=O)c3ccc4c(c3)OCO4)CC2)cc1`, > 50 µM (inactive); under `CN1c2ccc(-c3ccc(F)cc3)cc2[C@H]2[C@H](CCN2C(=O)Cc2ccccn2)[C@H]1CO`, > 50 µM (inactive).
Under `CCCNC(=O)N1CC[C@@H]2[C@@H](CO)N(C)c3ccc(-c4ccc(F)cc4)cc3[C@@H]21` stands > 50 µM (inactive); under `CN1c2ccc(-c3cccc(F)c3)cc2[C@H]2[C@H](CCN2C(=O)Nc2ccccc2F)[C@H]1CO`, > 50 µM (inactive); under `CN1c2ccc(-c3cccc(F)c3)cc2[C@H]2[C@H](CCN2C(=O)c2ccc3c(c2)OCO3)[C@@H]1CO`, > 50 µM (inactive).
Take `CCC(=O)N1CC[C@@H]2[C@@H](CO)N(C)c3ccc(-c4ccc(F)cc4)cc3[C@@H]21`: the IC90 is > 50 µM (inactive).
Under `CN1c2ccc(-c3cccc(F)c3)cc2[C@@H]2[C@@H](CCN2C(=O)c2ccc3c(c2)OCO3)[C@@H]1CO` stands > 50 µM (inactive).
With `CN1c2ccc(-c3ccc(F)cc3)cc2[C@H]2[C@H](CCN2C(=O)Nc2cc(F)ccc2F)[C@H]1CO`, the IC90 was > 50 µM (inactive).
Under `CN1c2ccc(-c3cccc(F)c3)cc2[C@H]2[C@H](CCN2C(=O)CCCCCCC(=O)O)[C@H]1CO` stands > 50 µM (inactive).
